Test systems include HS 578T breast; MDA-MB-435; OVCAR-3 ovarian; HT29 colon; SNB-75 CNS; ACHN renal; SK-MEL-5 melanoma; UO-31 renal; LOX IMVI melanoma; U251 CNS; CAKI-1 renal; HCC-2998 colon; HL-60(TB) leukemia; SF-295 CNS; SNB-19 CNS; SK-MEL-2 melanoma; NCI-H23 lung.
Holding throughout (experiment): growth of human tumour cells (NCI), 48 h

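Values below derive from 48-hour exposures of cells grown in 96-well plates, with endpoints linearly interpolated between the two concentrations bracketing the appropriate inhibition level. The concentration for full growth arrest is given as TGI.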

Consider `CCCCCc1cc2cc3c(c(O)c2c(=O)[nH]1)C1(CCC3)C(O)=c2c(=O)c3c(=O)cc(OC)c(=O)c=3c(=O)c2=C1O` (stereo unspecified), for which the TGI turned out to be 5.42 µM with HS 578T breast; 3.13 µM with MDA-MB-435; 2.21 µM in the assay on OVCAR-3 ovarian; 3.11 µM with HT29 colon; 3.67 µM in the assay on SNB-75 CNS; 2.25 µM with ACHN renal. The TGI in the assay on SK-MEL-5 melanoma amounted to 1.69 µM; with UO-31 renal, 1.94 µM; in the assay with LOX IMVI melanoma, 2.85 µM; with U251 CNS, 2.61 µM; in the assay with CAKI-1 renal, 2.8 µM; in the assay with HCC-2998 colon it was 4.42 µM. The TGI in the assay with HL-60(TB) leukemia came to 1.24 µM; in the assay on SF-295 CNS it was 11 µM; in the assay on SNB-19 CNS it was 3.86 µM; with SK-MEL-2 melanoma it was 3.68 µM; with NCI-H23 lung, 3.37 µM.
Regarding `CCOC(=O)C[n+]1cccc(C2(c3cc4ccccc4[nH]3)OCCO2)c1`, the TGI with HS 578T breast, with MDA-MB-435, in the assay on OVCAR-3 ovarian, in the assay with HT29 colon, in the assay on SNB-75 CNS and in the assay on ACHN renal was above 100 µM in each case. In addition, the TGI with SK-MEL-5 melanoma, in the assay with UO-31 renal, in the assay with LOX IMVI melanoma, in the assay on U251 CNS, in the assay on CAKI-1 renal and in the assay with HCC-2998 colon was above 100 µM throughout. In addition, the TGI with HL-60(TB) leukemia, in the assay on SF-295 CNS, in the assay with SNB-19 CNS, in the assay with SK-MEL-2 melanoma and in the assay on NCI-H23 lung was above 100 µM each time.
Regarding `O=c1oc2ccc([N+](=O)[O-])cc2c(Nc2ccc3c(c2)Sc2ccccc2O3)c1[N+](=O)[O-]`, the TGI was found to be 90.9 µM with HS 578T breast; 85 µM in the assay on MDA-MB-435; 31 µM in the assay with OVCAR-3 ovarian; 74.3 µM in the assay with HT29 colon; 79 µM in the assay with SNB-75 CNS; 72 µM in the assay on ACHN renal. Moreover, the TGI with SK-MEL-5 melanoma worked out at 41.1 µM; with UO-31 renal it was 37.8 µM; in the assay with LOX IMVI melanoma it was 36.2 µM; in the assay with U251 CNS it was 33.6 µM; in the assay with CAKI-1 renal, 50.6 µM; with HCC-2998 colon, 26.4 µM. Further, the TGI came out at 46.8 µM in the assay on HL-60(TB) leukemia; 94.3 µM with SF-295 CNS; 36.2 µM in the assay with SNB-19 CNS; 40.4 µM in the assay on SK-MEL-2 melanoma; 39.1 µM with NCI-H23 lung.
`C=CCc1cc(-c2cc(CC=C)c(O)c(CN(CC)CC)c2)cc(CN(CC)CC)c1O`: the TGI is above 100 µM in the assay with HS 578T breast; above 92.7 µM with MDA-MB-435; above 100 µM in the assay with OVCAR-3 ovarian; 40.9 µM with HT29 colon; above 100 µM in the assay on SNB-75 CNS; above 100 µM with ACHN renal. Moreover, the TGI in the assay with SK-MEL-5 melanoma is 25.9 µM; in the assay with UO-31 renal, 44.3 µM; in the assay with LOX IMVI melanoma, 31.7 µM; in the assay on U251 CNS, above 100 µM; in the assay with CAKI-1 renal, above 100 µM; in the assay on HCC-2998 colon, above 100 µM. The TGI with HL-60(TB) leukemia was above 86.3 µM; in the assay with SF-295 CNS, above 88 µM; in the assay with SNB-19 CNS, above 100 µM; in the assay with SK-MEL-2 melanoma, 60.3 µM; in the assay on NCI-H23 lung it was above 100 µM.
As to `CSc1c(C#N)c(N)nc2c(N=Nc3ccc(Br)cc3)c(N)nn12`, the TGI is 5.81 µM with HS 578T breast; 25 µM in the assay with MDA-MB-435; 6.77 µM in the assay with OVCAR-3 ovarian; 29 µM with HT29 colon; 28.8 µM in the assay on SNB-75 CNS; 18.5 µM with ACHN renal. Further, the TGI in the assay with SK-MEL-5 melanoma stood at 40.2 µM; with UO-31 renal, 28.6 µM; in the assay with LOX IMVI melanoma, 3.58 µM; in the assay on U251 CNS, 16.8 µM; with CAKI-1 renal it was 26 µM; in the assay with HCC-2998 colon it was 26 µM. In addition, the TGI came out at 9.1 µM with HL-60(TB) leukemia; 25.3 µM in the assay with SF-295 CNS; 69.6 µM in the assay on SNB-19 CNS; 17.2 µM in the assay on SK-MEL-2 melanoma; 14.4 µM in the assay with NCI-H23 lung.
For `COC12CCCN1c1ccn(Cc3ccccc3)c(=O)c1C2=O` (stereo unspecified), the TGI in the assay with HS 578T breast, with MDA-MB-435, with OVCAR-3 ovarian, in the assay on HT29 colon, in the assay on SNB-75 CNS and with ACHN renal was above 100 µM throughout. The TGI in the assay on SK-MEL-5 melanoma, in the assay with UO-31 renal, in the assay with LOX IMVI melanoma, in the assay with U251 CNS, with CAKI-1 renal and in the assay on HCC-2998 colon was above 100 µM throughout. In addition, the TGI in the assay with HL-60(TB) leukemia, in the assay on SF-295 CNS, with SNB-19 CNS, with SK-MEL-2 melanoma and in the assay on NCI-H23 lung was above 100 µM each time.
As for `C=C1c2nc3ccccc3n2C=C(c2ccc(C)cc2)N1c1ccc(C)cc1`, the TGI in the assay on HS 578T breast is above 100 µM; in the assay with MDA-MB-435, above 78.2 µM; in the assay with OVCAR-3 ovarian, above 100 µM; in the assay with HT29 colon, above 100 µM; in the assay on SNB-75 CNS, above 100 µM; with ACHN renal, above 100 µM. The TGI in the assay on SK-MEL-5 melanoma was above 69.8 µM; with UO-31 renal, above 100 µM; in the assay with LOX IMVI melanoma, above 100 µM; in the assay with U251 CNS, above 100 µM; in the assay with CAKI-1 renal, above 100 µM; in the assay with HCC-2998 colon it was above 72.9 µM. Also, the TGI in the assay on HL-60(TB) leukemia is 64.4 µM; with SF-295 CNS, above 100 µM; in the assay on SNB-19 CNS, above 100 µM; in the assay with SK-MEL-2 melanoma, above 100 µM; with NCI-H23 lung, above 100 µM.
`COC(=O)/C=C\C(C#N)(C#N)N=Cc1ccccc1`: the TGI is 36.2 µM with HS 578T breast; 5.22 µM in the assay on MDA-MB-435; 4.97 µM in the assay with OVCAR-3 ovarian; 19.4 µM in the assay on HT29 colon; 14.5 µM with SNB-75 CNS; 6.35 µM with ACHN renal. Besides, the TGI came to 28 µM in the assay with SK-MEL-5 melanoma; 7.23 µM with UO-31 renal; 5.72 µM in the assay with LOX IMVI melanoma; 35.6 µM in the assay with U251 CNS; 7.31 µM in the assay on CAKI-1 renal; 35.1 µM with HCC-2998 colon. The TGI is 6.42 µM with HL-60(TB) leukemia; 36.1 µM in the assay on SF-295 CNS; above 58.4 µM with SNB-19 CNS; 32.9 µM in the assay with SK-MEL-2 melanoma; 25.3 µM in the assay on NCI-H23 lung.

The record behind these values is PubChem BioAssay (NCI).
